In US20250115597A1, “TYK2 INHIBITORS AND COMPOSITIONS AND METHODS THEREOF” (LYNK PHARMACEUTICALS CO. LTD., priority 2021, published 2025):
Values after ≈ are worked out from the molar mass of the structure shown. Like-named read-outs stand apart in the source and are kept apart here.

How the values were obtained:
JAK2 = molecular target: T1, JAK2 (Homo sapiens, UniProt O60674); experiment: JAK2 kinase activity, microfluidic assay (Caliper EZ Reader II); assay type: biochemical; conditions: JAK2 0.125 nM, 1 mM ATP
T1 construct: purchased Carna Biosciences
Procedure: (§1) Testing for JAK1, JAK2 and TYK2 Kinase Activities
(§2) JAK activity was determined in the reaction buffer 50 mM HEPES, 0.01% Brij35, 10 mM MgCl2, 2 mM DTT by a microfluidic assay. The phosphorylation of a FAM labeled peptide substrate was monitored in the Caliper EZ Reader II (Perkin Elmer). The assay condition for each batch of enzyme (Carna Biosciences) was optimized to obtain 10% conversion rate of peptide substrate.
(§3) The test compounds were dissolved in DMSO to a stock concentration of 10 mM. Three-fold serially diluted compounds with top concentration of 5 μM were pre-incubated with JAK1, JAK2 or TYK2 for 10 min at ambient temperature. The final DMSO concentration of assay mixture was 1%. […] The reaction was stopped by adding 50 mM EDTA.
(§4) The percent inhibition was calculated by the following formula:
(§5) [formula] • wherein • Conversion %_max=the conversion rate in the positive well without addition of compound • Conversion %_sample=the conversion rate of test compounds • Conversion %_min=the conversion rate in the well without addition of enzyme
(§6) The dose-response (percent inhibition) curve was plotted and IC50 values were determined by GraphPad software.

[1] = Microsomal metabolic stability assay; assay type: in vitro ADME; conditions: pH 7.4, 0.5 mg/mL protein, 1 μM compound
Summary of the method: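 Parent loss was tracked by LC/MS/MS at 0, 5, 15, 30 and 45 min, with half-life derived from the ln(% remaining)–time slope. Incubation at 37 °C, pH 7.4 phosphate/EDTA buffer: 0.5 mg/mL microsomes, 1 μM compound, NADPH-regenerated (2 mM).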

[2] = molecular target: T2, Ba/F3-FL-TYK2-P760L cells (Homo sapiens, UniProt P29597, P760L, cells depend on it); experiment: Anti-proliferative assay, Ba/F3-FL-TYK2-P760L cells (Cell-Titer Glo); assay type: cell-based; conditions: 72 h, read-out: BaF3-FL-T2P760L IC50
T2 construct: BaF3-FL-T2P760L (nM)
Summary of the method: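 Compound exposure ran 72 h at 37 °C in 5% CO2 across nine 3-fold concentrations from a 20 μM top dose, added 24 h after seeding 2000 cells/well.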

JAK1 = molecular target: T3, JAK1 (Homo sapiens, UniProt P23458); experiment: JAK1 kinase activity, microfluidic assay (Caliper EZ Reader II); assay type: biochemical; conditions: JAK1 5 nM, 1 mM ATP
T3 construct: purchased Carna Biosciences
Procedure: as §1, §2, §3, §4, §5, §6

TYK2-JH2 domain = molecular target: T4, TYK2-JH2 domain (Homo sapiens, UniProt P29597); experiment: Binding activity test for JH2 domain of TYK2 (Tb-antibody/tracer FRET); conditions: for JAK1/TYK2 selectivity: ratio JAK1-JH2 IC50 / TYK2-JH2 IC50
T4 construct: IC50 on JH2 domain activity (nM)
Summary of the method: (§7)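 FRET read-out after 60 min at 25° C plus overnight at 4° C; tracer displacement detected via Tb-labelled antibody on the JH2 domain. Dose-response used 11 points at 3-fold dilution.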

Ba/F3-TEL-TYK2 cells = molecular target: T5, Ba/F3-TEL-TYK2 cells (Homo sapiens, UniProt P29597); experiment: Anti-proliferative assay, Ba/F3-TEL-TYK2 cells (Cell-Titer Glo); assay type: cell-based; conditions: 72 h, read-out: BaF3-TEL-TYK2 IC50
T5 construct: fused on or other part: Dimerization domain of TEL (ETV6) fused to the TYK2 kinase domain; P41212 (Transcription factor ETV6)
Procedure: Anti-Proliferative Assay Dimerization domain of Tel protein fused with JAK kinase domain was permanently transduced into Ba/F3 cells, whose proliferation is dependent on JAK activity in the absence of IL-3 induction. These engineered Ba/F3 cells (Ba/F3-FL-TYK2-[…], Ba/F3-TEL-TYK2 and Ba/F3-TEL-JAK2) were used to monitor JAK inhibitory activities of the compounds in the cellular. […] Cells were seeded at 2000/well of white flat bottom 96-well plates. The well containing medium only was used as background control. After 24 h growth, cells were treated with compounds. The test compounds were dissolved in DMSO to a stock concentration of 20 mM. 3-fold serially diluted compounds for 9 concentrations with top concentration of 20 μM was added into the each well. […] The cells continued to grow at 37° C. in 5% CO2 for 72 h after compound treatment. The viability was measured by cellular ATP determination using the Cell-Titer Glo luciferase reagent (Promega). The Luminescence value was recorded by a multi-label reader Envision (PerkinElmer).

TYK2 = molecular target: T6, TYK2 (Homo sapiens, UniProt P29597); experiment: TYK2 kinase activity, microfluidic assay (Caliper EZ Reader II); assay type: biochemical; conditions: TYK2 1 nM, 1 mM ATP
T6 construct: purchased Carna Biosciences
Procedure: as §1, §2, §3, §4, §5, §6

Kinetic solubility = assay type: physicochemical; conditions: phosphate buffer, aqueous buffer, kinetic from dmso stock, PBS (pH 7.4), 1% DMSO, room temperature
Procedure: Aliquots of 8 μL of reference and test compound stock solutions (10 mM/5 mM) are added into 792 μL of 100 mM pH 7.4 phosphate buffer. The final DMSO concentration is 1%. Sample tubes are shaken for 2 hours at 1000 rpm at room temperature. Samples are centrifuged at 12000 rpm for 10 min to precipitate un-dissolved particles. And transfer the supernatants to a new tube or plate. Add 5 μL of samples (no diluted, 10 times diluted and 100 times diluted) and standard curve samples to 95 μL of ACN containing IS for LC-MS/MS analysis.

JAK1-JH2 domain = molecular target: T7, JAK1-JH2 domain (Homo sapiens, UniProt P23458); experiment: Binding activity test for JH2 domain of JAK1 (Tb-antibody/tracer FRET)
T7 construct: IC50 on JH2 domain activity (nM)
Summary of the method: as §7

[3] = Plasma protein binding by equilibrium dialysis; assay type: in vitro ADME; conditions: human plasma, equilibrium dialysis 5 hours at 37° C.; read-out: % Bound (human) (converted)
Procedure: Plasma Protein Binding by Equilibrium Dialysis
Aliquots of test compound stock solution and warfarin stock solution were spiked into plasma to give the matrix solutions with theoretical concentrations of test compound at 0.2 and 2 μM or warfarin at 2 μM. Immediately transfer 50 μL of the spiked plasma solution suspension to a 96-well plate to act as T=0 control sample. Assemble the dialysis set up following the manufacturer's instructions. Load cells with 150 μL of plasma sample and dialyzed against equal volume of dialysis buffer (PBS). The assay is performed in duplicate. Cover the unit with gas permeable lid and incubate for 5 hours at 37° C. at 100 rpm in a constant temperature shaking box. At the end of incubation, remove lid and pipette 50 μL of post-dialysis samples from both buffer and plasma solution chambers into separated 96-well plate for analysis, respectively. Add 50 μL of plasma solution to the buffer samples, and an equal volume of PBS to the collected plasma solution samples. Shake the plate at 1000 rpm for 2 minutes and add 600 μL of 50% ACN/MeOH containing an appropriate internal standard (IS) to precipitate protein and release compound. Vortex at 1000 rpm for 10 minutes. Centrifuge for 10 minutes at 4000 rpm. Then transfer 75 μL of the supernatant to new 96-well plates for analysis. Add 150 μL of distilled water to each sample and mix for analysis by LC-MS/MS.
The free rate (% Unbound), binding rate (% Bound), and recovery rate (% Recovery) of the compound are calculated as follows: […]

[4] = dog liver microsomes, read-out: Dog LM Clint
[5] = dog liver microsomes, read-out: Dog LM T½
[6] = human liver microsomes, read-out: Human LM Clint
[7] = human liver microsomes, read-out: Human LM T½
[8] = rat liver microsomes, read-out: Rat LM Clint
[9] = rat liver microsomes, read-out: Rat LM T½

T4 sequence (P29597 589-875 limits assumed): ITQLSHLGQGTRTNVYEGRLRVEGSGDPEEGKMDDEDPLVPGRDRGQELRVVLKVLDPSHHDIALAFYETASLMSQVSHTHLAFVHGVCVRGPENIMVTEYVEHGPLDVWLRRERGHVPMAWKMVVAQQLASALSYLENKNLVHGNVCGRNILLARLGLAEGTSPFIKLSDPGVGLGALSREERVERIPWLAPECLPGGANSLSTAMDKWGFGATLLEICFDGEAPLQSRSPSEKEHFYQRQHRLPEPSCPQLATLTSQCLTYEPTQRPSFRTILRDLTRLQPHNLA
T2 sequence (P29597 whole entry P760L): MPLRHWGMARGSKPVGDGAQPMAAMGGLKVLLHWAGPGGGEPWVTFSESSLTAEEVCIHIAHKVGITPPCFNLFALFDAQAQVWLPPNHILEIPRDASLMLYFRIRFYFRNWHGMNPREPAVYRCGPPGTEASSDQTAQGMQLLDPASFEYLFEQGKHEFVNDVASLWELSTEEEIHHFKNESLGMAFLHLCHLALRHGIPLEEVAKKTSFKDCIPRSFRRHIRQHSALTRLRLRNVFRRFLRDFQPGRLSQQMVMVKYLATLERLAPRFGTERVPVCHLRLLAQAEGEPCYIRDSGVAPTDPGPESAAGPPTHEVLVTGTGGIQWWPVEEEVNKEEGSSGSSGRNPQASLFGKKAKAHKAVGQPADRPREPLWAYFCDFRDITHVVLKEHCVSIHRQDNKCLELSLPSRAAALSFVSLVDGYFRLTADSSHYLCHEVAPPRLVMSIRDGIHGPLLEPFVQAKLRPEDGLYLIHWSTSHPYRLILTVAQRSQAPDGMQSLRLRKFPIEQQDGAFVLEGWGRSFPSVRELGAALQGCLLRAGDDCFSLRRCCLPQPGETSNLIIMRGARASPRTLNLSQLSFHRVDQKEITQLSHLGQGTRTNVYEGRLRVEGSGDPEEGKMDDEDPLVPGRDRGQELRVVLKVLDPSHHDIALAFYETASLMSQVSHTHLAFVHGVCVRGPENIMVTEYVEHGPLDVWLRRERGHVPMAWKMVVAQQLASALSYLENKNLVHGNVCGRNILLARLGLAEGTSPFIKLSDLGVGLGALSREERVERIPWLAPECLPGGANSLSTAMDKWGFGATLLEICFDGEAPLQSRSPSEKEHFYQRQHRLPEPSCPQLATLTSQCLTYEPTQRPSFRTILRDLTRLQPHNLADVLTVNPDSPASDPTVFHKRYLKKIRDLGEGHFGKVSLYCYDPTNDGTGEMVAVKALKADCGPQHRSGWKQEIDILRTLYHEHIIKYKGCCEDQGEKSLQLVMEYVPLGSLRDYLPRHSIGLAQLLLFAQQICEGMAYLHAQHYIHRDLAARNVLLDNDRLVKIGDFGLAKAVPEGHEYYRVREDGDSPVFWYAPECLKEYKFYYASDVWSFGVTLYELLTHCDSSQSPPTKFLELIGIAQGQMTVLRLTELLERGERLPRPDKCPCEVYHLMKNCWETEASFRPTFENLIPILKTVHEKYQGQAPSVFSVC
T5 sequence (P29597 whole entry, change not shown, the tested form may be a part): as the sequence (P29597 whole entry P760L) above, with L760P counted along it
T6 sequence (P29597 whole entry): as the sequence (P29597 whole entry P760L) above, with L760P counted along it
T7 sequence (P23458 583-855 limits assumed): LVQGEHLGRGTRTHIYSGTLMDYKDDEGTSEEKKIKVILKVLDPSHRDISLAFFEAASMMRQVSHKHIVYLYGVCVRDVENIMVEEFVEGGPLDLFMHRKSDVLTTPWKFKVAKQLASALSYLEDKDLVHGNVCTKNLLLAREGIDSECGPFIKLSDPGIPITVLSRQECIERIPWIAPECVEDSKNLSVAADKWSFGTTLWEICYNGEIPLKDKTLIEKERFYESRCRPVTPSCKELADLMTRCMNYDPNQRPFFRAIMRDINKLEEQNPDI
T1 sequence (O60674 whole entry): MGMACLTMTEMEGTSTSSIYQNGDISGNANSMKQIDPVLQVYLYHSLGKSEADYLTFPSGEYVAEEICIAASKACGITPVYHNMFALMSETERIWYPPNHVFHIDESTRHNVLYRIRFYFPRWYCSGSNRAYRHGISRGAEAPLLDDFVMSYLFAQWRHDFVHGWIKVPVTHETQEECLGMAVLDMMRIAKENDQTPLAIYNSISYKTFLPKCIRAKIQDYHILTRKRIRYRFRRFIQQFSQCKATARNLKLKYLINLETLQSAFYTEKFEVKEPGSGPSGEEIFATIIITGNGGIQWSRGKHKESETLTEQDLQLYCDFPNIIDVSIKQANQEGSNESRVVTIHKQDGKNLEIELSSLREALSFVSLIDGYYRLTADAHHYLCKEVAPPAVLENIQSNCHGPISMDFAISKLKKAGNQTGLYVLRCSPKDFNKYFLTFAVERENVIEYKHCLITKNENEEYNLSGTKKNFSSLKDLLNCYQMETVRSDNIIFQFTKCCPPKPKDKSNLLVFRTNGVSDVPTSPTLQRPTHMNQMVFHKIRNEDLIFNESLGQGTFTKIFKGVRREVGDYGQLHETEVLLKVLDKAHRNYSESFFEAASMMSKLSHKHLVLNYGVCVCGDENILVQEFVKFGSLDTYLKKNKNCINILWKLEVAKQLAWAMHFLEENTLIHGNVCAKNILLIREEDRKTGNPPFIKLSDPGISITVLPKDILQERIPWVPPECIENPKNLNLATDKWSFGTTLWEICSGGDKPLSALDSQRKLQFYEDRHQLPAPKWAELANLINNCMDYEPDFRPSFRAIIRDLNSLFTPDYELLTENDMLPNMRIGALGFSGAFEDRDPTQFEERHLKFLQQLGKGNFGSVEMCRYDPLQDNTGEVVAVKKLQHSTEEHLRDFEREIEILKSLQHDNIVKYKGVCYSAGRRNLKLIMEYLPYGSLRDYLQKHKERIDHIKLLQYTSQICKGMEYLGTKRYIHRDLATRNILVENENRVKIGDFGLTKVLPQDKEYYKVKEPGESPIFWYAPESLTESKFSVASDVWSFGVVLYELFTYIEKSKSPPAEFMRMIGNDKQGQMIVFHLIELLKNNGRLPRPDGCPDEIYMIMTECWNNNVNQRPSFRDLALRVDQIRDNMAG
T3 sequence (P23458 whole entry): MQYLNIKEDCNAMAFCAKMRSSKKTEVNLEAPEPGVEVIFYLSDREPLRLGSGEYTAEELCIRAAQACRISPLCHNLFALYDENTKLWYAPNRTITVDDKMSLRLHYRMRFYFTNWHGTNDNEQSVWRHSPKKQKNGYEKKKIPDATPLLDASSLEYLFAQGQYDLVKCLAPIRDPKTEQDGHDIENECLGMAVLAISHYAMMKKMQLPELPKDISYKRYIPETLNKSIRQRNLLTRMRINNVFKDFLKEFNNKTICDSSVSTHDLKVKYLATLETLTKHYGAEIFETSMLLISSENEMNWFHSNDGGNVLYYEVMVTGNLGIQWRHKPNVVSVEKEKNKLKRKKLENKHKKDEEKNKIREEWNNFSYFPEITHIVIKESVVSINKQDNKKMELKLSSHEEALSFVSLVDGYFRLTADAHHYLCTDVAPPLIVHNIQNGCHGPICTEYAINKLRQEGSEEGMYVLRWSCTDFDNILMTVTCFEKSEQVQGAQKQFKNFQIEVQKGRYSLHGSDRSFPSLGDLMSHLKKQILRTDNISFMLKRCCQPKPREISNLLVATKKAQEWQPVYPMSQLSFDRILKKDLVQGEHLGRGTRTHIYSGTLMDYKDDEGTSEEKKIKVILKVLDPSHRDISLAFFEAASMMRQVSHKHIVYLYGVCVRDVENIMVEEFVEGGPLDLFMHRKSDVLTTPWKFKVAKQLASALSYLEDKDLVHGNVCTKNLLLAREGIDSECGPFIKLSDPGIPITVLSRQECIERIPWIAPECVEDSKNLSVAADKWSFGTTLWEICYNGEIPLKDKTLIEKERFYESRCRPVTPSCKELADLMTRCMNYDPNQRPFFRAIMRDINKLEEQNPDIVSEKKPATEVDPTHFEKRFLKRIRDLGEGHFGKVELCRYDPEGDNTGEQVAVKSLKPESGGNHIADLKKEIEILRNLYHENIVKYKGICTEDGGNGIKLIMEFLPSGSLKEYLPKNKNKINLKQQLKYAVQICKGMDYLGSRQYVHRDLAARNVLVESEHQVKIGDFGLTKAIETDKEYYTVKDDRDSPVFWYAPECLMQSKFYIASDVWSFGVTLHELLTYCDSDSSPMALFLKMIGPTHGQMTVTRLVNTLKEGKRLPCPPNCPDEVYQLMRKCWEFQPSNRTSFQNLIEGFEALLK

Compound | IC50 (JAK2) | microsomal CLint at 1 μM [1, 4] | half-life at 1 μM [1, 5] | microsomal CLint at 1 μM [1, 6] | half-life at 1 μM [1, 7] | microsomal CLint at 1 μM [1, 8] | half-life at 1 μM [1, 9] | GI50 [2] | IC50 (JAK1) | IC50 (TYK2-JH2 domain) | GI50 (Ba/F3-TEL-TYK2 cells) | IC50 (TYK2) | solubility at 2 h (Kinetic solubility) | IC50 (JAK1-JH2 domain) | JAK1/TYK2 selectivity (TYK2-JH2 domain) | fraction unbound at 5 h [3]
CCn1ccc2scc(Nc3cc(NC(=O)C4CC4)ncc3C(=O)NC)c2c1=O [Example 17, 6-(Cyclopropanecarboxamido)-4-((5-ethyl-4-oxo-4,5-dihydrothieno[3,2-c]pyridin-3-yl)amino)-N-methylnicotinamide] | > 5000 nM | 47.1 µL/min/mg | 73.6 min | 128 µL/min/mg | 27.1 min | 209 µL/min/mg | 16.6 min | 114 nM | > 5000 nM | 0.202 nM | > 10000 nM | > 5000 nM | – | – | – | –
CNC(=O)c1nnc(NC(=O)C2CC2)cc1Nc1csc2ccn(C)c(=O)c12 [Example 27, 6-(Cyclopropanecarboxamido)-N-methyl-4-((5-methyl-4-oxo-4,5-dihydrothieno[3,2-c]pyridin-3-yl)amino)pyridazine-3-carboxamide] | > 5000 nM | – | – | – | – | – | – | 50.9 nM | > 5000 nM | 0.48 nM | > 20000 nM | > 5000 nM | – | – | – | –
CNC(=O)c1nnc(NC(=O)C2CC2)cc1Nc1cn(C)c2ccn(C)c(=O)c12 [Example 49, 6-(Cyclopropanecarboxamido)-4-((1,5-dimethyl-4-oxo-4,5-dihydro-1H-pyrrolo[3,2-c]pyridin-3-yl)amino)-N-methylpyridazine-3-carboxamide] | – | < 11.5 µL/min/mg | > 120 min | 14.4 µL/min/mg | 96.2 min | 32.4 µL/min/mg | 42.8 min | 111 nM | – | – | – | – | 6.3 µM (≈ 2.49 µg/mL) | – | – | –
[2H]C([2H])([2H])NC(=O)c1cnc2cc1Nc1cc(cc(-c3ncn(CC)n3)c1OC)COCc1nc(ccc1F)N2 [Example 85, 11-(1-Ethyl-1H-1,2,4-triazol-3-yl)-18-fluoro-10-methoxy-N-(methyl-d3)-15-oxa-2,4,8,21-tetraazatetracyclo[15.3.1.1^{3,7}.1^{9,13}]tricosa-1(20),3,5,7(23),9,11,13(22),17(21),18-nonaene-6-carboxamide] | – | – | – | – | – | – | – | 142 nM | – | – | – | – | 15.2 µM (≈ 7.74 µg/mL) | – | – | –
[2H]C([2H])([2H])NC(=O)c1cnc(NC(=O)C2CC2)cc1Nc1ccc2ncn(CC)c2c1OC [Example 167, 6-(Cyclopropanecarboxamido)-4-((1-ethyl-7-methoxy-1H-benzo[d]imidazol-6-yl)amino)-N-(methyl-d3)nicotinamide] | – | 45 µL/min/mg | 30.8 min | 57.8 µL/min/mg | 24 min | 149 µL/min/mg | 9.29 min | 100 nM | – | – | – | – | 109 µM (≈ 44.9 µg/mL) | – | – | –
[2H]C([2H])([2H])NC(=O)c1cnc(Nc2ccc(F)cn2)cc1Nc1cn(CCOC)c2ccn(CC)c(=O)c12 [Example 192, 4-((5-Ethyl-1-(2-methoxyethyl)-4-oxo-4,5-dihydro-1H-pyrrolo[3,2-c]pyridin-3-yl)amino)-6-((5-fluoropyridin-2-yl)amino)-N-(methyl-d3)nicotinamide] | – | 21.9 µL/min/mg | 63.4 min | 26.8 µL/min/mg | 51.6 min | 72.6 µL/min/mg | 19.1 min | 124 nM | – | 3.37 nM | – | – | 17.8 µM (≈ 8.59 µg/mL) | – | – | –
[2H]C([2H])([2H])NC(=O)c1cnc(NC(=O)C2CC2)cc1Nc1ccc2cnn(C)c2c1OC [Example 206, 6-(Cyclopropanecarboxamido)-4-((7-methoxy-1-methyl-1H-indazol-6-yl)amino)-N-(methyl-d3)nicotinamide] | – | – | – | – | – | – | – | 68.5 nM | – | 0.623 nM | – | – | 28.7 µM (≈ 11.4 µg/mL) | 11 nM | 17.6 | 0.07

Continued, values first:

IC50 (JAK2) | microsomal CLint at 1 μM [1, 4] | half-life at 1 μM [1, 5] | microsomal CLint at 1 μM [1, 6] | half-life at 1 μM [1, 7] | microsomal CLint at 1 μM [1, 8] | half-life at 1 μM [1, 9] | GI50 [2] | IC50 (JAK1) | IC50 (TYK2-JH2 domain) | GI50 (Ba/F3-TEL-TYK2 cells) | IC50 (TYK2) | solubility at 2 h (Kinetic solubility) | IC50 (JAK1-JH2 domain) | JAK1/TYK2 selectivity (TYK2-JH2 domain) | fraction unbound at 5 h [3] | Compound
– | – | – | – | – | – | – | 149 nM | – | 0.407 nM | – | – | 8.45 µM (≈ 3.24 µg/mL) | – | – | 0.039 | [2H]C([2H])([2H])NC(=O)c1cnc(NC(=O)C2CC2)cc1Nc1ccc2cn[nH]c2c1OC [Example 207, 6-(Cyclopropanecarboxamido)-4-((7-methoxy-1H-indazol-6-yl)amino)-N-(methyl-d3)nicotinamide]
– | – | – | – | – | – | – | 1260 nM | – | 2.86 nM | – | – | 33.9 µM (≈ 14.4 µg/mL) | – | – | – | [2H]C([2H])([2H])NC(=O)c1cnc(Nc2ccn(C)n2)cc1Nc1nn(C)c2ccn(CC)c(=O)c12 [Example 219]
– | – | – | – | – | – | – | 357 nM | – | 0.782 nM | – | – | 47.4 µM (≈ 20.7 µg/mL) | 25.4 nM | 32.5 | – | [2H]C([2H])([2H])NC(=O)c1cnc(NC(=O)C2CC2)cc1Nc1ccc2cnn(C(C)C#N)c2c1OC (stereo not drawn) [Example 249, 4-((1-(1-Cyanoethyl)-7-methoxy-1H-indazol-6-yl)amino)-6-(cyclopropanecarboxamido)-N-(methyl-d3)nicotinamide]
